Measured values published in ChEMBL document CHEMBL2396528, “Synthesis of new conjugated coumarin-benzimidazole hybrids and their anticancer activity” (2013).

How the values were obtained:
Format in all cases: functional
SF-268 = experiment: Cytotoxicity against human SF268 cells assessed as growth inhibition at 10 uM after 48 hrs by SRB assay relative to control; conditions: SF-268, 48 h, read-out: GI
UACC-62 = experiment: Cytotoxicity against human UACC62 cells assessed as growth inhibition at 10 uM after 48 hrs by SRB assay relative to control; conditions: UACC-62, 48 h, read-out: GI
[1] = Cytotoxicity against human NCI-ADR-RES cells assessed as growth inhibition at 10 uM after 48 hrs by SRB assay relative to control; conditions: read-out: GI
SK-MEL-2 = experiment: Cytotoxicity against human SK-MEL-2 cells assessed as growth inhibition at 10 uM after 48 hrs by SRB assay relative to control; conditions: SK-MEL-2, 48 h, read-out: GI
IGROV-1 = experiment: Cytotoxicity against human IGROV1 cells assessed as growth inhibition at 10 uM after 48 hrs by SRB assay relative to control; conditions: IGROV-1, 48 h, read-out: GI
SN12C = experiment: Cytotoxicity against human SN12C cells assessed as growth inhibition at 10 uM after 48 hrs by SRB assay relative to control; conditions: read-out: GI
Malme-3M = experiment: Cytotoxicity against human MALME-3M cells assessed as growth inhibition at 10 uM after 48 hrs by SRB assay relative to control; conditions: read-out: GI
NCI-H23 = experiment: Cytotoxicity against human NCI-H23 cells assessed as growth inhibition at 10 uM after 48 hrs by SRB assay relative to control; conditions: NCI-H23, 48 h, read-out: GI
SNB-75 = experiment: Cytotoxicity against human SNB75 cells assessed as growth inhibition at 10 uM after 48 hrs by SRB assay relative to control; conditions: SNB-75, 48 h, read-out: GI
NCI-H226 = experiment: Cytotoxicity against human NCI-H226 cells assessed as growth inhibition at 10 uM after 48 hrs by SRB assay relative to control; conditions: NCI-H226, 48 h, read-out: GI
SW-620 = experiment: Cytotoxicity against human SW620 cells assessed as growth inhibition at 10 uM after 48 hrs by SRB assay relative to control; conditions: SW-620, 48 h, read-out: GI
UO-31 = experiment: Cytotoxicity against human UO31 cells assessed as growth inhibition at 10 uM after 48 hrs by SRB assay relative to control; conditions: UO-31, 48 h, read-out: GI
HCC 2998 = experiment: Cytotoxicity against human HCC2998 cells assessed as growth inhibition at 10 uM after 48 hrs by SRB assay relative to control; conditions: HCC 2998, 48 h, read-out: GI
OVCAR-4 = experiment: Cytotoxicity against human OVCAR4 cells assessed as growth inhibition at 10 uM after 48 hrs by SRB assay relative to control; conditions: OVCAR-4, 48 h, read-out: GI
NCI-H522 = experiment: Cytotoxicity against human NCI-H522 cells assessed as growth inhibition at 10 uM after 48 hrs by SRB assay relative to control; conditions: NCI-H522, 48 h, read-out: GI
UACC-257 = experiment: Cytotoxicity against human UACC257 cells assessed as growth inhibition at 10 uM after 48 hrs by SRB assay relative to control; conditions: UACC-257, 48 h, read-out: GI
A549 = experiment: Cytotoxicity against human A549 cells assessed as growth inhibition at 10 uM after 48 hrs by SRB assay relative to control; conditions: A549, 48 h, read-out: GI
Hs-578T = experiment: Cytotoxicity against human Hs578T cells assessed as growth inhibition at 10 uM after 48 hrs by SRB assay relative to control; conditions: read-out: GI
MOLT-4 = experiment: Cytotoxicity against human MOLT4 cells assessed as growth inhibition at 10 uM after 48 hrs by SRB assay relative to control; conditions: MOLT-4, 48 h, read-out: GI
OVCAR-3 = experiment: Cytotoxicity against human OVCAR3 cells assessed as growth inhibition at 10 uM after 48 hrs by SRB assay relative to control; conditions: OVCAR-3, 48 h, read-out: GI
MCF7 = experiment: Cytotoxicity against human MCF7 cells assessed as growth inhibition at 10 uM after 48 hrs by SRB assay relative to control; conditions: MCF7, 48 h, read-out: GI
U-251 = experiment: Cytotoxicity against human U251 cells assessed as growth inhibition at 10 uM after 48 hrs by SRB assay relative to control; conditions: U-251, 48 h, read-out: GI
HL-60(TB) = experiment: Cytotoxicity against human HL-60(TB) cells assessed as growth inhibition at 10 uM after 48 hrs by SRB assay relative to control; conditions: HL-60, 48 h, read-out: GI
PC-3 = experiment: Cytotoxicity against human PC3 cells assessed as growth inhibition at 10 uM after 48 hrs by SRB assay relative to control; conditions: PC-3, 48 h, read-out: GI
OVCAR-5 = experiment: Cytotoxicity against human OVCAR5 cells assessed as growth inhibition at 10 uM after 48 hrs by SRB assay relative to control; conditions: OVCAR-5, 48 h, read-out: GI
K562 = experiment: Cytotoxicity against human K562 cells assessed as growth inhibition at 10 uM after 48 hrs by SRB assay relative to control; conditions: K562, 48 h, read-out: GI
KM12 = experiment: Cytotoxicity against human KM12 cells assessed as growth inhibition at 10 uM after 48 hrs by SRB assay relative to control; conditions: KM12, 48 h, read-out: GI
CAKI-1 = experiment: Cytotoxicity against human Caki1 cells assessed as growth inhibition at 10 uM after 48 hrs by SRB assay relative to control; conditions: CAKI-1, 48 h, read-out: GI
BT-549 = experiment: Cytotoxicity against human BT549 cells assessed as growth inhibition at 10 uM after 48 hrs by SRB assay relative to control; conditions: BT-549, 48 h, read-out: GI
OVCAR-8 = experiment: Cytotoxicity against human OVCAR8 cells assessed as growth inhibition at 10 uM after 48 hrs by SRB assay relative to control; conditions: OVCAR-8, 48 h, read-out: GI
SK-MEL-28 = experiment: Cytotoxicity against human SK-MEL-28 cells assessed as growth inhibition at 10 uM after 48 hrs by SRB assay relative to control; conditions: SK-MEL-28, 48 h, read-out: GI
SF-539 = experiment: Cytotoxicity against human SF539 cells assessed as growth inhibition at 10 uM after 48 hrs by SRB assay relative to control; conditions: SF-539, 48 h, read-out: GI
HCT-15 = experiment: Cytotoxicity against human HCT15 cells assessed as growth inhibition at 10 uM after 48 hrs by SRB assay relative to control; conditions: HCT-15, 48 h, read-out: GI
T47D = experiment: Cytotoxicity against human T47D cells assessed as growth inhibition at 10 uM after 48 hrs by SRB assay relative to control; conditions: read-out: GI
SK-OV-3 = experiment: Cytotoxicity against human SKOV3 cells assessed as growth inhibition at 10 uM after 48 hrs by SRB assay relative to control; conditions: SK-OV-3, 48 h, read-out: GI

Compound | inhibition of growth at 10 µM (SF-268) [%] | inhibition of growth at 10 µM (UACC-62) [%] | inhibition of growth at 10 µM [1] [%] | inhibition of growth at 10 µM (SK-MEL-2) [%] | inhibition of growth at 10 µM (IGROV-1) [%] | inhibition of growth at 10 µM (SN12C) [%] | inhibition of growth at 10 µM (Malme-3M) [%] | inhibition of growth at 10 µM (NCI-H23) [%] | inhibition of growth at 10 µM (SNB-75) [%] | inhibition of growth at 10 µM (NCI-H226) [%] | inhibition of growth at 10 µM (SW-620) [%] | inhibition of growth at 10 µM (UO-31) [%] | inhibition of growth at 10 µM (HCC 2998) [%] | inhibition of growth at 10 µM (OVCAR-4) [%] | inhibition of growth at 10 µM (NCI-H522) [%] | inhibition of growth at 10 µM (UACC-257) [%] | inhibition of growth at 10 µM (A549) [%] | inhibition of growth at 10 µM (Hs-578T) [%] | inhibition of growth at 10 µM (MOLT-4) [%] | inhibition of growth at 10 µM (OVCAR-3) [%] | further results
NCCNc1ccc2cc(-c3nc4ccccc4[nH]3)c(=O)oc2c1 | < 20 | < 20 | < 20 | < 20 | < 20 | < 20 | < 20 | < 20 | < 20 | < 20 | < 20 | < 20 | < 20 | < 20 | < 20 | < 20 | < 20 | < 20 | < 20 | < 20 | inhibition of growth at 10 µM (MCF7): < 20%; inhibition of growth at 10 µM (U-251): < 20%; inhibition of growth at 10 µM (HL-60(TB)): < 20%; inhibition of growth at 10 µM (PC-3): 20.3%; inhibition of growth at 10 µM (OVCAR-5): < 20%; inhibition of growth at 10 µM (K562): < 20%; inhibition of growth at 10 µM (KM12): < 20%; inhibition of growth at 10 µM (CAKI-1): < 20%; inhibition of growth at 10 µM (BT-549): < 20%; inhibition of growth at 10 µM (OVCAR-8): < 20%; inhibition of growth at 10 µM (SK-MEL-28): < 20%; inhibition of growth at 10 µM (SF-539): < 20%; inhibition of growth at 10 µM (HCT-15): 20.6%; inhibition of growth at 10 µM (T47D): < 20%; inhibition of growth at 10 µM (SK-OV-3): < 20%
O=c1oc2cc(NCCN3CCOCC3)ccc2cc1-c1nc2ccccc2[nH]1 | < 20 | < 20 | < 20 | < 20 | < 20 | < 20 | < 20 | < 20 | 22.9 | < 20 | < 20 | 34.3 | < 20 | < 20 | < 20 | < 20 | < 20 | < 20 | < 20 | < 20 | inhibition of growth at 10 µM (MCF7): < 20%; inhibition of growth at 10 µM (U-251): < 20%; inhibition of growth at 10 µM (HL-60(TB)): < 20%; inhibition of growth at 10 µM (PC-3): < 20%; inhibition of growth at 10 µM (OVCAR-5): < 20%; inhibition of growth at 10 µM (K562): < 20%; inhibition of growth at 10 µM (KM12): < 20%; inhibition of growth at 10 µM (CAKI-1): < 20%; inhibition of growth at 10 µM (BT-549): < 20%; inhibition of growth at 10 µM (OVCAR-8): < 20%; inhibition of growth at 10 µM (SK-MEL-28): < 20%; inhibition of growth at 10 µM (SF-539): < 20%; inhibition of growth at 10 µM (HCT-15): < 20%; inhibition of growth at 10 µM (T47D): < 20%; inhibition of growth at 10 µM (SK-OV-3): < 20%
O=c1oc2cc(N3CCOCC3)ccc2cc1-c1nc2ccccc2[nH]1 | < 20 | < 20 | < 20 | < 20 | < 20 | < 20 | < 20 | < 20 | < 20 | < 20 | < 20 | 24.9 | < 20 | < 20 | < 20 | < 20 | < 20 | < 20 | < 20 | < 20 | inhibition of growth at 10 µM (MCF7): 62.1%; inhibition of growth at 10 µM (U-251): < 20%; inhibition of growth at 10 µM (HL-60(TB)): < 20%; inhibition of growth at 10 µM (PC-3): < 20%; inhibition of growth at 10 µM (OVCAR-5): < 20%; inhibition of growth at 10 µM (K562): < 20%; inhibition of growth at 10 µM (KM12): < 20%; inhibition of growth at 10 µM (CAKI-1): < 20%; inhibition of growth at 10 µM (BT-549): < 20%; inhibition of growth at 10 µM (OVCAR-8): < 20%; inhibition of growth at 10 µM (SK-MEL-28): < 20%; inhibition of growth at 10 µM (SF-539): < 20%; inhibition of growth at 10 µM (HCT-15): < 20%; inhibition of growth at 10 µM (T47D): < 20%; inhibition of growth at 10 µM (SK-OV-3): < 20%
